Patent US20260306491A1, “EGFR INHIBITOR FOR TREATING CANCERS COMPRISING ATYPICAL EGFR MUTATIONS” (ORIC Pharmaceuticals, Inc., priority 2023, published 2026)
Where a name gives a salt, the structure may show the parent alone.

How the values were obtained:
[1] = Solubility screening of malonate salt of Compound I in various solvents at RT; assay type: physicochemical
Description: The solubility of the malonate salt of Compound I as prepared according to Example 2 in various solvents at RT was measured. The malonate salt of Compound I (approximately 2 mg) was added to a 3-mL glass vial. The solvent was then added stepwise (50/50/200/200/500/1000 μL) into the vial until the solids were dissolved visually or a total volume of 2 mL was reached.

[2] = Moisture uptake by dynamic vapor sorption (DVS); assay type: physicochemical; settings: 25° C./80% relative humidity
Description: DVS was measured via a SMS (Surface Measurement Systems) DVS Intrinsic.
The relative humidity at 25° C. was calibrated against deliquescence point of LiCl, Mg(NO3)2 and KCl.
Freebase Compound I was stirred with an equimolar amount of malonic acid in acetone at RT for 14.5 hrs. The slurry was subjected to vacuum drying at 50° C. for about 6 hrs. The malonate salt of Compound I was analyzed by XRPD, DSC, TGA, ^1H NMR, and DVS. […] As shown in the TGA graph, a weight loss of about 0.7% up to 130° C. was observed.
Freebase Compound I was stirred with an equimolar amount of glycolic acid in acetone at RT for 2 days, followed by vacuum drying at 50° C. for 2 hrs. The glycolate salt of Compound I was analyzed by XRPD, DSC, TGA, ^1H NMR, and DVS. […] As shown in the TGA graph, a weight loss of about 1.3% up to 120° C. was observed.

[3] = Biodistribution in plasma and brain after single oral dose in female CB17 SCID mice; assay type: in vivo; settings: mouse, oral 50 mg/kg, 8 h
Description: Female non-tumor bearing Fox Chase CB17 SCID mice were orally administered a single dose as specified in Table B1.
Brain tissues were excised and plasma was collected from all the animals receiving Compound I, or tucatinib at 1 hour, 4 hours, and 8 hours post-administration. Tucatinib was used as a reference agent. Tucatinib is a clinically approved therapy for HER2 positive breast cancer patients with brain metastases. The harvested brains were rinsed in ice-cold phosphate-buffered saline and weighed. All plasma and brain samples were stored at approximately −80° C. until thawed for LC-MS/MS analysis.
Prior to analysis, brain tissues were homogenized 1:5 with phosphate buffer. Average free brain-to-free plasma ratio (Kp,uu) was calculated from individual mice by using total concentration values determined in the brain and plasma at individual time points, or by calculating the area under the curve (AUC) and converting the values to free concentration (or AUC) with in vitro binding parameters determined in the brain (fu,b) and plasma (fu,p) as follows:
Kp,uu=Brain Concentration (or AUC)*fu,b/Plasma Concentration (or AUC)*fu,p.
Free fraction in the brain (fu,b) and in plasma (fu,p) was determined with equilibrium dialysis as follows: The brain tissue homogenate or plasma from the mice were spiked to yield a final concentration of 1 μM Compound I, or 5 μM tucatinib. Compound I and tucatinib were incubated in equilibrium dialysis plate on a shaking incubator at 37° C. with 5% CO2 at 450 rpm for 8 hours and 24 hours, respectively. Following the incubation, aliquots of the matrix and the buffer samples were sampled and the concentration of Compound I, or tucatinib were determined.
where fu,b,d is fraction unbound determined with 20% brain homogenate.

## C=CC(=O)Nc1cc(Nc2cc(N3OCC[C@@H]3c3cc(F)cc(F)c3)ncn2)c(OC)cc1N1CCC(N2CCN(C3CC3)CC2)CC1 [malonate salt of Compound I]
[1]; Water, RT
  solubility: < 1200 µg/mL
[1]; organic solvent or mixture, 1,4-Dioxane, RT
  solubility: 2100 to 7000 µg/mL
[1]; organic solvent or mixture, 2-MeTHF, RT
  solubility: 1100 to 2200 µg/mL
[1]; organic solvent or mixture, ACN, RT
  solubility: 6000 to 18000 µg/mL
[1]; organic solvent or mixture, Acetone, RT
  solubility: 1100 to 2200 µg/mL
[1]; organic solvent or mixture, Anisole, RT
  solubility: < 900 µg/mL
[1]; organic solvent or mixture, CHCl3, RT
  solubility: > 40000 µg/mL
[1]; organic solvent or mixture, CPME, RT
  solubility: < 1100 µg/mL
[1]; organic solvent or mixture, DCM, RT
  solubility: 20000 to 40000 µg/mL
[1]; organic solvent or mixture, DMSO, RT
  solubility: > 40000 µg/mL
[1]; organic solvent or mixture, EtOAc, RT
  solubility: < 1000 µg/mL
[1]; organic solvent or mixture, EtOH, RT
  solubility: 1900 to 6300 µg/mL
[1]; organic solvent or mixture, IPA, RT
  solubility: < 1200 µg/mL
[1]; organic solvent or mixture, IPAc, RT
  solubility: < 900 µg/mL
[1]; organic solvent or mixture, MIBK, RT
  solubility: < 1200 µg/mL
[1]; organic solvent or mixture, MTBE, RT
  solubility: < 1000 µg/mL
[1]; organic solvent or mixture, MeOH, RT
  solubility: > 46000 µg/mL
[1]; organic solvent or mixture, THF, RT
  solubility: 2100 to 7000 µg/mL
[1]; organic solvent or mixture, Toluene, RT
  solubility: < 1000 µg/mL
[1]; organic solvent or mixture, n-Heptane, RT
  solubility: < 1100 µg/mL
[2]
  Moisture uptake: 0.19%

## Cc1cc(Nc2ncnc3ccc(NC4=NC(C)(C)CO4)cc23)ccc1Oc1ccn2ncnc2c1 [tucatinib, reference compound]
[3]
  Unbound brain concentration: below the limit of quantitation (BLOQ)
